Laboratory results reported in patent US20160280651A1, “COMPOUNDS THAT INDUCE ABA RESPONSES” (THE REGENTS OF THE UNIVERSITY OF CALIFORNIA, priority 2013, published 2016).

Tested on: ABI2 with PYR/PYL receptors
Assay: Receptor-mediated PP2C inhibition assay with ABI2, Example 1
Assay type: biochemical, Arabidopsis
Details: 10 μM; receptors PYR1, PYL1, PYL2, PYL3 and PYL5
Protocol: FIG. 2A-FIG. 2C. Novel ABA agonists inhibit PPC2 activity through multiple PYR/PYL. (A) Chemical structure of naturally occurring (+)-ABA and selected ABA agonists. (B) and (C) HAB1, ABU, and ABI2 PP2C enzyme activity based ABA-agonist assays for various receptors in the presence or absence of 10 μM each test chemical.
HAB1 and PYL proteins were expressed and purified as described previously (Park S Y, et al. (2009) Abscisic Acid Inhibits Type 2C Protein Phosphatases via the PYR/PYL Family of START Proteins. Science 324(5930):1068-1071), with minor modifications. To obtain GST-HAB1, -ABI1 and -ABI2 fusion proteins, the HAB1 cDNA was cloned into pGex-2T whereas ABI1 and ABI2 cDNAs were cloned into the vector pGex-4T-1. […] After 16 hours incubation at 15° C., cells were harvested and recombinant proteins were purified on glutathione agarose as described previously (Park S Y, et al. (2009). To obtain 6×His-PYL receptor fusion proteins, receptor cDNAs for all 13 ABA receptors were cloned into the vector pET28 and expressed and purified as described previously (Mosquna A, et al. (2011) Potent and selective activation of abscisic acid receptors in vivo by mutational stabilization of their agonist-bound conformation. PNAS 108(51):20838-20843); this yielded soluble and functional protein (assessed using receptor-mediated PP2C inhibition assays) for all receptors except PYL7, PYL11 and PYL12. […]

`CCCN1C(=O)CCc2cc(NS(=O)(=O)Cc3ccc(C)cc3)ccc21` [LC66C6] was tested, and the “PP2C inhibition of ABI2” value was greater than 70%.
